Results published in patent US7666890B2, “Synthesis and herbicidal activity of 1- (2-substituted benzo[d]thiazol-5-yl)-1H-1,2,4-triazol-5(4H)-one derivatives” (Huazhong Normal University, priority 2007, dated 2010).

Key:
Assay in all cases: Test of herbicidal activities (greenhouse pot method)
Assay type in all cases: in vivo
Conditions in all cases: single dose 300 g ai./h, treated before/after germination, 15 days later, greenhouse pot
[1] = system: Brassica juncea
Method in brief: (§1)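 Greenhouse pot test on weeds grown in mixed garden/mountain/humus soil at 15-30° C; pre- and post-emergence spray at a single dose of 300 g ai./h via automatic spraying tower (0.2 MPa). Inhibition scored after 15 days into five levels A (90-100%) to E (<50%); triplicate with blank control.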

[2] = system: Amaranthus retroflexus
Method in brief: as §1

[3] = system: Setaria viridis
Method in brief: as §1

[4] = system: Digiatria sanguinalis
Method in brief: as §1

[5] = system: Chenopodium album
Method in brief: as §1

[6] = system: Echinochloa crusgalli
Method in brief: as §1

| Compound | Herbicidal activity Brassica juncea (inhibition level) [1] | Herbicidal activity Amaranthus retroflexus (inhibition level) [2] | Herbicidal activity Setaria viridis (inhibition level) [3] | Herbicidal activity Digiatria sanguinalis (inhibition level) [4] | Herbicidal activity Chenopodium album (inhibition level) [5] | Herbicidal activity Echinochloa crusgalli (inhibition level) [6] |
| --- | --- | --- | --- | --- | --- | --- |
| Cc1nn(-c2cc3nc(S(=O)(=O)Cc4ccccc4)sc3cc2Cl)c(=O)n1C(F)F [Compound 37] | D (50 ≦ D < 60%) | C (60 ≦ C < 80%) | E (E < 50%) | C (60 ≦ C < 80%) | A (90 ≦ A ≦ 100%) | D (50 ≦ D < 60%) |
| Cc1nn(-c2cc3nc(SCc4ccc(F)cc4)sc3cc2Br)c(=O)n1C(F)F [Compound 27] | A (90 ≦ A ≦ 100%) | D (50 ≦ D < 60%) | B (80 ≦ B < 90%) | D (50 ≦ D < 60%) | C (60 ≦ C < 80%) | B (80 ≦ B < 90%) |
| CCCCCC[S+]([O-])c1nc2cc(-n3nc(C)n(C(F)F)c3=O)c(F)cc2s1 (stereo not drawn) [Compound 112] | C (60 ≦ C < 80%) | B (80 ≦ B < 90%) | B (80 ≦ B < 90%) | A (90 ≦ A ≦ 100%) | B (80 ≦ B < 90%) | B (80 ≦ B < 90%) |
| Cc1nn(-c2cc3nc([S+](C)[O-])sc3cc2Br)c(=O)n1C(F)F (stereo not drawn) [Compound 108] | A (90 ≦ A ≦ 100%) | B (80 ≦ B < 90%) | B (80 ≦ B < 90%) | B (80 ≦ B < 90%) | E (E < 50%) | A (90 ≦ A ≦ 100%) |
| CCOC(=O)C(C)S(=O)(=O)c1nc2cc(-n3nc(C)n(C(F)F)c3=O)c(Br)cc2s1 (stereo not drawn) [Compound 59] | A (90 ≦ A ≦ 100%) | A (90 ≦ A ≦ 100%) | C (60 ≦ C < 80%) | C (60 ≦ C < 80%) | B (80 ≦ B < 90%) | D (50 ≦ D < 60%) |
| CCCC[S+]([O-])c1nc2cc(-n3nc(C)n(C(F)F)c3=O)c(F)cc2s1 (stereo not drawn) [Compound 120] | A (90 ≦ A ≦ 100%) | C (60 ≦ C < 80%) | B (80 ≦ B < 90%) | B (80 ≦ B < 90%) | B (80 ≦ B < 90%) | D (50 ≦ D < 60%) |
| CCOC(=O)CS(=O)(=O)c1nc2cc(-n3nc(C)n(C(F)F)c3=O)c(F)cc2s1 [Compound 65] | A (90 ≦ A ≦ 100%) | A (90 ≦ A ≦ 100%) | B (80 ≦ B < 90%) | B (80 ≦ B < 90%) | A (90 ≦ A ≦ 100%) | C (60 ≦ C < 80%) |
| Cc1nn(-c2cc3nc(SCc4c(F)cccc4F)sc3cc2Cl)c(=O)n1C(F)F [Compound 9] | A (90 ≦ A ≦ 100%) | B (80 ≦ B < 90%) | E (E < 50%) | B (80 ≦ B < 90%) | C (60 ≦ C < 80%) | B (80 ≦ B < 90%) |
| CCOC(=O)C(C)Sc1nc2cc(-n3nc(C(F)(F)F)n(C(F)F)c3=O)c(Cl)cc2s1 (stereo not drawn) [Compound 124] | B (80 ≦ B < 90%) | B (80 ≦ B < 90%) | A (90 ≦ A ≦ 100%) | E (E < 50%) | B (80 ≦ B < 90%) | D (50 ≦ D < 60%) |
| C=CCSc1nc2cc(-n3nc(C(F)(F)F)n(C(F)F)c3=O)c(Br)cc2s1 [Compound 128] | A (90 ≦ A ≦ 100%) | A (90 ≦ A ≦ 100%) | D (50 ≦ D < 60%) | C (60 ≦ C < 80%) | B (80 ≦ B < 90%) | A (90 ≦ A ≦ 100%) |
| C=CC[S+]([O-])c1nc2cc(-n3nc(C)n(C(F)F)c3=O)c(Br)cc2s1 (stereo not drawn) [Compound 117] | C (60 ≦ C < 80%) | C (60 ≦ C < 80%) | E (E < 50%) | B (80 ≦ B < 90%) | B (80 ≦ B < 90%) | C (60 ≦ C < 80%) |
| CCSc1nc2cc(-n3nc(C)n(C(F)F)c3=O)c(F)cc2s1 [Compound 84] | C (60 ≦ C < 80%) | B (80 ≦ B < 90%) | B (80 ≦ B < 90%) | A (90 ≦ A ≦ 100%) | A (90 ≦ A ≦ 100%) | A (90 ≦ A ≦ 100%) |
| Cc1nn(-c2cc3nc(S(=O)(=O)Cc4cccc(Cl)c4)sc3cc2F)c(=O)n1C(F)F [Compound 53] | A (90 ≦ A ≦ 100%) | B (80 ≦ B < 90%) | D (50 ≦ D < 60%) | B (80 ≦ B < 90%) | B (80 ≦ B < 90%) | C (60 ≦ C < 80%) |
| Cc1nn(-c2cc3nc(S(=O)(=O)Cc4c(F)cccc4F)sc3cc2Cl)c(=O)n1C(F)F [Compound 38] | D (50 ≦ D < 60%) | C (60 ≦ C < 80%) | B (80 ≦ B < 90%) | D (50 ≦ D < 60%) | C (60 ≦ C < 80%) | C (60 ≦ C < 80%) |
| Cc1nn(-c2cc3nc(S(=O)(=O)Cc4cccc(F)c4)sc3cc2Cl)c(=O)n1C(F)F [Compound 44] | C (60 ≦ C < 80%) | B (80 ≦ B < 90%) | B (80 ≦ B < 90%) | C (60 ≦ C < 80%) | C (60 ≦ C < 80%) | C (60 ≦ C < 80%) |
| Cc1ccc([N+](=O)[O-])c(CS(=O)(=O)c2nc3cc(-n4nc(C)n(C(F)F)c4=O)c(F)cc3s2)c1 [Compound 46] | E (E < 50%) | A (90 ≦ A ≦ 100%) | B (80 ≦ B < 90%) | B (80 ≦ B < 90%) | C (60 ≦ C < 80%) | D (50 ≦ D < 60%) |
| C=CCS(=O)(=O)c1nc2cc(-n3nc(C)n(C(F)F)c3=O)c(Cl)cc2s1 [Compound 71] | B (80 ≦ B < 90%) | C (60 ≦ C < 80%) | B (80 ≦ B < 90%) | C (60 ≦ C < 80%) | B (80 ≦ B < 90%) | C (60 ≦ C < 80%) |
| CCCCCCS(=O)(=O)c1nc2cc(-n3nc(C)n(C(F)F)c3=O)c(F)cc2s1 [Compound 55] | C (60 ≦ C < 80%) | C (60 ≦ C < 80%) | B (80 ≦ B < 90%) | B (80 ≦ B < 90%) | A (90 ≦ A ≦ 100%) | E (E < 50%) |
| CCCSc1nc2cc(-n3nc(C)n(C(F)F)c3=O)c(Cl)cc2s1 [Compound 100] | A (90 ≦ A ≦ 100%) | A (90 ≦ A ≦ 100%) | C (60 ≦ C < 80%) | B (80 ≦ B < 90%) | A (90 ≦ A ≦ 100%) | B (80 ≦ B < 90%) |
| CCOC(=O)C(C)[S+]([O-])c1nc2cc(-n3nc(C)n(C(F)F)c3=O)c(Br)cc2s1 (stereo not drawn) [Compound 116] | A (90 ≦ A ≦ 100%) | B (80 ≦ B < 90%) | B (80 ≦ B < 90%) | C (60 ≦ C < 80%) | B (80 ≦ B < 90%) | D (50 ≦ D < 60%) |
